# Experimental data published in the supplement of paper PMC10307832.
# Key:
# Assay in all cases: relative viability (nuclei count vs DMSO), 5 days (fraction); higher = more cells survive
# [1] = compound: Cc1ccc2nc(NCCN)c3ncc(C)n3c2c1 + COc1cc2c(Oc3ccc(NC(=O)C4(C(=O)Nc5ccc(F)cc5)CC4)cc3F)ccnc2cc1OCCCN1CCOCC1 [Foretinib] (partner 0.25 µM)
# In short: (§1)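 Relative viability is defined as nuclei in treated wells over nuclei in vehicle wells. Duplicate plates were run and medians reported. Lung cancer cell lines in 1536-well plates were dosed by pin tool one day after seeding, with one drug or with a fixed anchor-drug dose plus five library-drug doses (not always all listed) in √10 steps, and nuclei were counted after 5 days.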
# [2] = compound: Cc1ccc2nc(NCCN)c3ncc(C)n3c2c1 + C[C@@H](Oc1cc(-c2cnn(C3CCNCC3)c2)cnc1N)c1c(Cl)ccc(F)c1Cl [Crizotinib] (partner 1 µM)
# In short: as §1
# [3] = compound: Cc1ccc2nc(NCCN)c3ncc(C)n3c2c1 + C[C@]1(O)C[C@@H](c2nc(-c3ccc4ccc(-c5ccccc5)nc4c3)c3c(N)nccn32)C1 [Linsitinib] (partner 1 µM)
# In short: as §1
# Salubrinal + Pictilisib = compound: O=C(/C=C/c1ccccc1)NC(NC(=S)Nc1cccc2cccnc12)C(Cl)(Cl)Cl [Salubrinal] + CS(=O)(=O)N1CCN(Cc2cc3nc(-c4cccc5[nH]ncc45)nc(N4CCOCC4)c3s2)CC1 [Pictilisib] (partner 1 µM)
# In short: as §1
cell line,measurement,setting,value
LOU-NH91,relative viability,[1]; first compound 0.04 µM,0.914
same,relative viability,[1]; first compound 0.1265 µM,0.929
same,relative viability,[1]; first compound 0.4 µM,0.889
same,relative viability,[1]; first compound 1.265 µM,0.93
same,relative viability,[1]; first compound 4 µM,0.844
same,relative viability,[2]; first compound 0.04 µM,0.753
same,relative viability,[2]; first compound 0.1265 µM,0.714
same,relative viability,[2]; first compound 0.4 µM,0.748
same,relative viability,[2]; first compound 1.265 µM,0.727
same,relative viability,[2]; first compound 4 µM,0.749
same,relative viability,[3]; first compound 0.04 µM,0.964
same,relative viability,[3]; first compound 0.1265 µM,0.865
same,relative viability,[3]; first compound 0.4 µM,0.977
same,relative viability,[3]; first compound 1.265 µM,0.942
same,relative viability,[3]; first compound 4 µM,0.959
same,relative viability,Salubrinal + Pictilisib; first compound 0.08 µM,0.541
same,relative viability,Salubrinal + Pictilisib; first compound 0.253 µM,0.502
same,relative viability,Salubrinal + Pictilisib; first compound 0.8 µM,0.576
same,relative viability,Salubrinal + Pictilisib; first compound 2.53 µM,0.479
same,relative viability,Salubrinal + Pictilisib; first compound 8 µM,0.53
IA-LM,relative viability,[1]; first compound 0.04 µM,1.19
same,relative viability,[1]; first compound 0.1265 µM,1.25
same,relative viability,[1]; first compound 0.4 µM,1.07
same,relative viability,[1]; first compound 1.265 µM,1.16
same,relative viability,[1]; first compound 4 µM,0.928
same,relative viability,[2]; first compound 0.04 µM,1.05
same,relative viability,[2]; first compound 0.1265 µM,0.945
same,relative viability,[2]; first compound 0.4 µM,0.631
same,relative viability,[2]; first compound 1.265 µM,0.787
same,relative viability,[2]; first compound 4 µM,0.631
same,relative viability,[3]; first compound 0.04 µM,0.825
same,relative viability,[3]; first compound 0.1265 µM,0.559
same,relative viability,[3]; first compound 0.4 µM,0.542
same,relative viability,[3]; first compound 1.265 µM,0.658
same,relative viability,[3]; first compound 4 µM,0.495
same,relative viability,Salubrinal + Pictilisib; first compound 0.08 µM,0.353
same,relative viability,Salubrinal + Pictilisib; first compound 0.253 µM,0.279
same,relative viability,Salubrinal + Pictilisib; first compound 0.8 µM,0.357
same,relative viability,Salubrinal + Pictilisib; first compound 2.53 µM,0.219
same,relative viability,Salubrinal + Pictilisib; first compound 8 µM,0.188
NCI-H3122,relative viability,[1]; first compound 0.04 µM,0.928
same,relative viability,[1]; first compound 0.1265 µM,0.981
same,relative viability,[1]; first compound 0.4 µM,0.924
same,relative viability,[1]; first compound 1.265 µM,1.07
same,relative viability,[1]; first compound 4 µM,0.875
same,relative viability,[2]; first compound 0.04 µM,0.291
same,relative viability,[2]; first compound 0.1265 µM,0.304
same,relative viability,[2]; first compound 0.4 µM,0.293
same,relative viability,[2]; first compound 1.265 µM,0.286
same,relative viability,[2]; first compound 4 µM,0.318
same,relative viability,[3]; first compound 0.04 µM,1
same,relative viability,[3]; first compound 0.1265 µM,1.03
same,relative viability,[3]; first compound 0.4 µM,0.999
same,relative viability,[3]; first compound 1.265 µM,0.982
same,relative viability,[3]; first compound 4 µM,1.04
same,relative viability,Salubrinal + Pictilisib; first compound 0.08 µM,0.565
same,relative viability,Salubrinal + Pictilisib; first compound 0.253 µM,0.633
same,relative viability,Salubrinal + Pictilisib; first compound 0.8 µM,0.657
same,relative viability,Salubrinal + Pictilisib; first compound 2.53 µM,0.694
same,relative viability,Salubrinal + Pictilisib; first compound 8 µM,0.663
HCC-827,relative viability,[1]; first compound 0.04 µM,1.05
same,relative viability,[1]; first compound 0.1265 µM,1.1
same,relative viability,[1]; first compound 0.4 µM,1.06
same,relative viability,[1]; first compound 1.265 µM,1.02
same,relative viability,[1]; first compound 4 µM,0.935
same,relative viability,[2]; first compound 0.04 µM,0.792
same,relative viability,[2]; first compound 0.1265 µM,0.903
same,relative viability,[2]; first compound 0.4 µM,0.932
same,relative viability,[2]; first compound 1.265 µM,0.866
same,relative viability,[2]; first compound 4 µM,0.927
same,relative viability,[3]; first compound 0.04 µM,0.932
same,relative viability,[3]; first compound 0.1265 µM,0.936
same,relative viability,[3]; first compound 0.4 µM,0.91
same,relative viability,[3]; first compound 1.265 µM,0.946
same,relative viability,[3]; first compound 4 µM,0.938
same,relative viability,Salubrinal + Pictilisib; first compound 0.08 µM,0.959
same,relative viability,Salubrinal + Pictilisib; first compound 0.253 µM,1.02
same,relative viability,Salubrinal + Pictilisib; first compound 0.8 µM,1.06
same,relative viability,Salubrinal + Pictilisib; first compound 2.53 µM,0.994
same,relative viability,Salubrinal + Pictilisib; first compound 8 µM,0.898
SK-LU-1,relative viability,[1]; first compound 0.04 µM,0.824
same,relative viability,[1]; first compound 0.1265 µM,0.836
same,relative viability,[1]; first compound 0.4 µM,0.9
same,relative viability,[1]; first compound 1.265 µM,0.791
same,relative viability,[1]; first compound 4 µM,0.781
same,relative viability,[2]; first compound 0.04 µM,0.926
same,relative viability,[2]; first compound 0.1265 µM,0.937
same,relative viability,[2]; first compound 0.4 µM,1.01
same,relative viability,[2]; first compound 1.265 µM,0.852
same,relative viability,[2]; first compound 4 µM,0.83
same,relative viability,[3]; first compound 0.04 µM,1.18
same,relative viability,[3]; first compound 0.1265 µM,1.09
same,relative viability,[3]; first compound 0.4 µM,1.12
same,relative viability,[3]; first compound 1.265 µM,1.16
same,relative viability,[3]; first compound 4 µM,1.04
same,relative viability,Salubrinal + Pictilisib; first compound 0.08 µM,0.678
same,relative viability,Salubrinal + Pictilisib; first compound 0.253 µM,0.588
same,relative viability,Salubrinal + Pictilisib; first compound 0.8 µM,0.698
same,relative viability,Salubrinal + Pictilisib; first compound 2.53 µM,0.647
same,relative viability,Salubrinal + Pictilisib; first compound 8 µM,0.519
NCI-H1975,relative viability,[1]; first compound 0.04 µM,0.992
same,relative viability,[1]; first compound 0.1265 µM,0.981
same,relative viability,[1]; first compound 0.4 µM,0.895
same,relative viability,[1]; first compound 1.265 µM,0.947
same,relative viability,[1]; first compound 4 µM,0.882
same,relative viability,[2]; first compound 0.04 µM,1.05
same,relative viability,[2]; first compound 0.1265 µM,0.965
same,relative viability,[2]; first compound 0.4 µM,0.957
same,relative viability,[2]; first compound 1.265 µM,0.771
same,relative viability,[2]; first compound 4 µM,0.757
same,relative viability,[3]; first compound 0.04 µM,0.972
same,relative viability,[3]; first compound 0.1265 µM,0.93
same,relative viability,[3]; first compound 0.4 µM,0.91
same,relative viability,[3]; first compound 1.265 µM,0.897
same,relative viability,[3]; first compound 4 µM,0.893
same,relative viability,Salubrinal + Pictilisib; first compound 0.08 µM,0.259
same,relative viability,Salubrinal + Pictilisib; first compound 0.253 µM,0.269
same,relative viability,Salubrinal + Pictilisib; first compound 0.8 µM,0.338
same,relative viability,Salubrinal + Pictilisib; first compound 2.53 µM,0.269
same,relative viability,Salubrinal + Pictilisib; first compound 8 µM,0.278
NCI-H1703,relative viability,[1]; first compound 0.04 µM,0.307
same,relative viability,[1]; first compound 0.1265 µM,0.316
same,relative viability,[1]; first compound 0.4 µM,0.322
same,relative viability,[1]; first compound 1.265 µM,0.368
same,relative viability,[1]; first compound 4 µM,0.327
same,relative viability,[2]; first compound 0.04 µM,0.89
same,relative viability,[2]; first compound 0.1265 µM,0.679
same,relative viability,[2]; first compound 0.4 µM,0.623
same,relative viability,[2]; first compound 1.265 µM,0.709
same,relative viability,[2]; first compound 4 µM,0.563
same,relative viability,[3]; first compound 0.04 µM,1.43
same,relative viability,[3]; first compound 0.1265 µM,0.74
same,relative viability,[3]; first compound 0.4 µM,0.72
same,relative viability,[3]; first compound 1.265 µM,1.23
same,relative viability,[3]; first compound 4 µM,0.715
same,relative viability,Salubrinal + Pictilisib; first compound 0.08 µM,0.216
same,relative viability,Salubrinal + Pictilisib; first compound 0.253 µM,0.246
same,relative viability,Salubrinal + Pictilisib; first compound 0.8 µM,0.238
same,relative viability,Salubrinal + Pictilisib; first compound 2.53 µM,0.259
same,relative viability,Salubrinal + Pictilisib; first compound 8 µM,0.264
